# Test results from ChEMBL document CHEMBL3885861, “Open TG-GATES”.
# Organism: Rattus norvegicus
# Assay: Open TG-GATES - Regimen: Single
# Type: toxicity, organism-based, Sprague-Dawley
# Parameters: regimen Single, gender Male, age 6 weeks
# Settings: in vivo, po, 10 mg/kg, route gavage, dose level Middle; for APTT / Bas / Eos / Fbg / Hb / Ht / Lym / MCH / MCHC / MCV / Mono / Neu / PT / Plat / RBC / Ret / WBC: tissue Blood; for KIDNEY_L / KIDNEY_R / KIDNEY_TOTAL: tissue Kidney; for LIVER: tissue Liver; for A/G / ALP / ALT / AST / BUN / CRE / Ca / Cl / DBIL / GLC / IP / K / LDH / Na / PL / RALB / TBIL / TC / TG / TP / gamma-GTP: tissue Plasma
structure (smiles),measurement,setting,value
Nc1c2c(nc3ccccc13)CCCC2 [TACRINE],TERMINAL_BW,3 h,204.5 g
same,APTT,3 h,22.1 s
same,Bas,3 h,0%
same,Eos,3 h,0.8%
same,Fbg,3 h,297.8 mg/dL
same,Hb,3 h,13.3 g/dL
same,Ht,3 h,38.8%
same,Lym,3 h,70%
same,MCH,3 h,21.2 pg
same,MCHC,3 h,34.4%
same,MCV,3 h,61.5 fL
same,Mono,3 h,2.2%
same,Neu,3 h,26.8%
same,PT,3 h,16.5 s
same,Plat,3 h,123.9 x10_4/uL
same,RBC,3 h,630.4 x10_4/ul
same,Ret,3 h,8.5%
same,WBC,3 h,68 x10_2/uL
same,KIDNEY_L,3 h,0.9 g
same,KIDNEY_R,3 h,0.9 g
same,KIDNEY_TOTAL,3 h,1.8 g
same,LIVER,3 h,9.4 g
same,A/G,3 h,1.3
same,ALP,3 h,1472.8 IU/L
same,ALT,3 h,45 IU/L
same,AST,3 h,90.4 IU/L
same,BUN,3 h,11.8 mg/dL
same,CRE,3 h,0.2 mg/dL
same,Ca,3 h,10.6 mg/dL
same,Cl,3 h,106.4 meq/L
same,DBIL,3 h,0.006 mg/dL
same,GLC,3 h,213.4 mg/dL
same,IP,3 h,8.7 mg/dL
same,K,3 h,3.7 meq/L
same,LDH,3 h,205.8 IU/L
same,Na,3 h,141.8 meq/L
same,PL,3 h,140.4 mg/dL
same,RALB,3 h,3.2 g/dL
same,TBIL,3 h,0.03 mg/dL
same,TC,3 h,74.6 mg/dL
same,TG,3 h,66.6 mg/dL
same,TP,3 h,5.8 g/dL
same,gamma-GTP,3 h,1 IU/L
same,TERMINAL_BW,6 h,199.6 g
same,APTT,6 h,19.8 s
same,Bas,6 h,0%
same,Eos,6 h,0.6%
same,Fbg,6 h,317.2 mg/dL
same,Hb,6 h,13.6 g/dL
same,Ht,6 h,39.5%
same,Lym,6 h,75.4%
same,MCH,6 h,21 pg
same,MCHC,6 h,34.4%
same,MCV,6 h,60.8 fL
same,Mono,6 h,2%
same,Neu,6 h,21.2%
same,PT,6 h,15.6 s
same,Plat,6 h,119.2 x10_4/uL
same,RBC,6 h,649.6 x10_4/ul
same,Ret,6 h,7.8%
same,WBC,6 h,74.9 x10_2/uL
same,KIDNEY_L,6 h,0.9 g
same,KIDNEY_R,6 h,0.9 g
same,KIDNEY_TOTAL,6 h,1.8 g
same,LIVER,6 h,8.5 g
same,A/G,6 h,1.3
same,ALP,6 h,1669.4 IU/L
same,ALT,6 h,41.8 IU/L
same,AST,6 h,82.4 IU/L
same,BUN,6 h,10.6 mg/dL
same,CRE,6 h,0.2 mg/dL
same,Ca,6 h,10.6 mg/dL
same,Cl,6 h,107.4 meq/L
same,DBIL,6 h,0.002 mg/dL
same,GLC,6 h,201.2 mg/dL
same,IP,6 h,8.8 mg/dL
same,K,6 h,4.4 meq/L
same,LDH,6 h,290.6 IU/L
same,Na,6 h,141.8 meq/L
same,PL,6 h,161 mg/dL
same,RALB,6 h,3.1 g/dL
same,TBIL,6 h,0.028 mg/dL
same,TC,6 h,82.2 mg/dL
same,TG,6 h,50.8 mg/dL
same,TP,6 h,5.5 g/dL
same,gamma-GTP,6 h,1 IU/L
same,TERMINAL_BW,9 h,197 g
same,APTT,9 h,21.5 s
same,Bas,9 h,0%
same,Eos,9 h,1%
same,Fbg,9 h,312.4 mg/dL
same,Hb,9 h,13.4 g/dL
same,Ht,9 h,38.9%
same,Lym,9 h,76.2%
same,MCH,9 h,21.4 pg
same,MCHC,9 h,34.5%
same,MCV,9 h,61.9 fL
same,Mono,9 h,2.2%
same,Neu,9 h,20%
same,PT,9 h,15.9 s
same,Plat,9 h,119.1 x10_4/uL
same,RBC,9 h,628.6 x10_4/ul
same,Ret,9 h,7.5%
same,WBC,9 h,74.6 x10_2/uL
same,KIDNEY_L,9 h,0.9 g
same,KIDNEY_R,9 h,0.9 g
same,KIDNEY_TOTAL,9 h,1.8 g
same,LIVER,9 h,8.3 g
same,A/G,9 h,1.3
same,ALP,9 h,1332.6 IU/L
same,ALT,9 h,42.6 IU/L
same,AST,9 h,86.8 IU/L
same,BUN,9 h,11.8 mg/dL
same,CRE,9 h,0.1 mg/dL
same,Ca,9 h,10.7 mg/dL
same,Cl,9 h,107.4 meq/L
same,DBIL,9 h,0.004 mg/dL
same,GLC,9 h,183.8 mg/dL
same,IP,9 h,9.7 mg/dL
same,K,9 h,4.2 meq/L
same,LDH,9 h,186.8 IU/L
same,Na,9 h,142.2 meq/L
same,PL,9 h,137.8 mg/dL
same,RALB,9 h,3.1 g/dL
same,TBIL,9 h,0.026 mg/dL
same,TC,9 h,77 mg/dL
same,TG,9 h,43.6 mg/dL
same,TP,9 h,5.5 g/dL
same,gamma-GTP,9 h,1 IU/L
same,TERMINAL_BW,24 h,217.1 g
same,APTT,24 h,21.1 s
same,Bas,24 h,0%
same,Eos,24 h,1%
same,Fbg,24 h,305 mg/dL
same,Hb,24 h,13.5 g/dL
same,Ht,24 h,39.3%
same,Lym,24 h,79%
same,MCH,24 h,21.2 pg
same,MCHC,24 h,34.4%
same,MCV,24 h,61.6 fL
same,Mono,24 h,3%
same,Neu,24 h,15.8%
same,PT,24 h,15.9 s
same,Plat,24 h,116.9 x10_4/uL
same,RBC,24 h,638 x10_4/ul
same,Ret,24 h,7.4%
same,WBC,24 h,98.6 x10_2/uL
same,KIDNEY_L,24 h,1 g
same,KIDNEY_R,24 h,1 g
same,KIDNEY_TOTAL,24 h,2 g
same,LIVER,24 h,9.7 g
same,A/G,24 h,1.3
same,ALP,24 h,1669.4 IU/L
same,ALT,24 h,40.4 IU/L
same,AST,24 h,77.2 IU/L
same,BUN,24 h,17 mg/dL
same,CRE,24 h,0.2 mg/dL
same,Ca,24 h,11 mg/dL
same,Cl,24 h,106 meq/L
same,DBIL,24 h,0.004 mg/dL
same,GLC,24 h,183 mg/dL
same,IP,24 h,7.9 mg/dL
same,K,24 h,4.3 meq/L
same,LDH,24 h,229 IU/L
same,Na,24 h,141.4 meq/L
same,PL,24 h,161.6 mg/dL
same,RALB,24 h,3.1 g/dL
same,TBIL,24 h,0.022 mg/dL
same,TC,24 h,81 mg/dL
same,TG,24 h,97 mg/dL
same,TP,24 h,5.5 g/dL
same,gamma-GTP,24 h,1 IU/L
